Consider four compounds from PMC9544090, “BioWF: A Naturally‐Fused, Di‐Domain Biocatalyst from Biotin Biosynthesis Displays an Unexpectedly Broad Substrate Scope” (Chembiochem, 2022).

The term Kd denotes the equilibrium constant for the complex coming apart. As a reminder, the Km is the concentration of substrate that gives half-maximal velocity. One may read the kcat as the number of substrate molecules converted per active site and unit of time at saturation.

Data set [1] deals with CaBioWF. The conditions noted are these: ATP 1 mM, CoASH 1 mM, MgCl2 5 mM, pH 8, 30 °C, 5 h; mutant mass 68567 Da printed, so tag probably kept.
Data set [2] has as its target T1, CaBioWF (Corynebacterium amycolatum, UniProt E2MUP3).
T1 construct: full-length natural di-domain fusion; synthetic gene in pET-28a, E. coli BL21(DE3); His tag removed by TEV; homodimer by SEC
The data set can be described thus: UV-Vis titration, PLP ketoenamine peak at […] nm, hyperbolic fit. Format: binding.

For a further data set, the system named is O=C(O)CCCCCC(=O)O. The data set can be described thus: purified protein. The following applies: BioW domain, CoASH 1 mM, ATP 1 mM, MgCl2 10 mM, pH 8, 30 °C.

Sequence of CaBioWF (DOC9544090_1 entry or part of it F192Y): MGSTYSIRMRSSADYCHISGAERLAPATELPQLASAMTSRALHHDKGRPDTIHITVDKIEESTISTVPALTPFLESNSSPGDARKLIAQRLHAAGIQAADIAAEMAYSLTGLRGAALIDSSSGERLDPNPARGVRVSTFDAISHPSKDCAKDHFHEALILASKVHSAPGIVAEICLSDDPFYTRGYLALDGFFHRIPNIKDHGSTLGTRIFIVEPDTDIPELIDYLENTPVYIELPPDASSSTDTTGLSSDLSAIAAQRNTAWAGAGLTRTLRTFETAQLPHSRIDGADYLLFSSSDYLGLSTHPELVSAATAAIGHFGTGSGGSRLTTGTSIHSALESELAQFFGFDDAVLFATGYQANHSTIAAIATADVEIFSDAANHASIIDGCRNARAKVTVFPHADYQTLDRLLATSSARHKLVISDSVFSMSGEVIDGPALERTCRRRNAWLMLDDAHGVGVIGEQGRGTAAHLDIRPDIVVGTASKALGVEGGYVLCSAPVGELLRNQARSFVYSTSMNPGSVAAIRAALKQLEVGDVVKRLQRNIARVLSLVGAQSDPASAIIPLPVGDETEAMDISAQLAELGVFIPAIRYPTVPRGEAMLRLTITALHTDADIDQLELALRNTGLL

With `O=C(O)CCCCCC(=O)O` [DC7, pimelic acid], in the data set on CaBioWF [1], the “HPLC of acyl-CoA product, 260 nm” value is recorded as “acyl‐CoA product formation was only observed for the natural DC7 pimelic acid substrate”.

In the case of `C[C@H](N)C(=O)O` [ʟ‐Ala], on CaBioWF [2], the dissociation constant (Kd) is 1.83 ± 0.25 mM.

For the compound “CaBioWF (Corynebacterium amycolatum SK46)”, in the data set on O=C(O)CCCCCC(=O)O, the Km came out at 58.6 ± 3 µM and the turnover number (kcat) turned out to be 0.21 s⁻¹.

In turn, `NCC(=O)O` [Gly] registered an equilibrium dissociation constant (Kd) at CaBioWF [2] of 16.1 ± 1.95 mM.
